Earlier results in patent US7759361B2, “Azabicyclooctan-3-one derivatives and use thereof” (Aprea AB, priority 2004, dated 2010).

System: cells carrying mutant p53
Conditions: disclosed in WO 02/24692

O=C1C2CCN(CC2)C1(CO)CO [PRIMA-1, 2,2-bis(hydroxymethyl)-1-azabicyclo[2.2.2]octan-3-one]
induction of apoptosis: able to induce apoptosis
